Our source for the TGI and GI50 values is PubChem BioAssay (NCI).

Test in all cases: growth of human tumour cells (NCI), 48 h
Assay [1] deals with 786-0 renal.
The test system of assay [2] is BT-549 breast.
The subject of assay [3] is CCRF-CEM leukemia.
Assay [4] relates to EKVX NSCLC.
Assay [5] relates to HCT-15 colon.
Assay [6] has as its system NCI-H522 lung.
Assay [7] concerns OVCAR-8 ovarian.
The test system of assay [8] is PC-3 prostate.
The test system of assay [9] is SK-MEL-28 melanoma.
In assay [10] the test system is UO-31 renal.

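A five-concentration, 48-hour dose response in 96-well plates underlies each endpoint, interpolated linearly between surrounding concentrations. At the GI50, growth is halved. TGI is the concentration that stops growth completely.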 Where only a bound is given, the exact number is not on record here.

`C[N+]1([O-])C2CCC1CC(OC(=O)C(CO)c1ccccc1)C2` (stereo not drawn): the TGI in assay [1], in [2], in assay [3], in assay [4], in [5] and in [6] was greater than 100 µM each time. For the same compound, the TGI in assay [7], in assay [8], in assay [9] and in assay [10] was greater than 100 µM each time.
For the compound `O=C(CCCc1ccc(N(CCCl)CCCl)cc1)NCc1ccccc1`, the GI50 is 3.32 µM in [1]; 3.86 µM in assay [2]; 3.24 µM in [3]; 21.6 µM in assay [4]; 13.3 µM in assay [5]; 6.42 µM in assay [6]. Further, the GI50 in assay [7] is 8.11 µM; in [8], 12.1 µM; in assay [9] it was 17.2 µM; in assay [10], 5.43 µM. For the same compound, the TGI in assay [1] was 23.3 µM; in [2], 27.2 µM; in assay [3], 25.4 µM; in [4], 91.5 µM; in [5] it was greater than 100 µM; in assay [6], 24.5 µM. In addition, the TGI in [7] is greater than 100 µM; in assay [8], 73.9 µM; in assay [9] it was greater than 100 µM; in assay [10], 39.1 µM.
For the compound `Cc1c(Cl)cccc1C(=O)Nc1nc2c(s1)CN(C(=O)Nc1cccc(C(F)(F)F)c1)CC2`, the GI50 in [1] is 0.254 µM; in assay [2], 0.547 µM; in assay [3], 0.194 µM; in assay [4], 0.346 µM; in [5] it was 0.129 µM; in [6], 0.109 µM. For the same compound, the GI50 in assay [7] is 0.277 µM; in [8] it was 0.143 µM; in [9], 0.985 µM; in assay [10], 0.508 µM. Moreover, the TGI was greater than 25.3 µM in [1]; greater than 50 µM in [2]; greater than 50 µM in [3]; greater than 50 µM in [4]; greater than 50 µM in assay [5]; greater than 50 µM in assay [7]. In addition, the TGI in [8], in assay [9] and in assay [10] was greater than 50 µM throughout.
With `Cc1ccc(N)c(S)c1`, the TGI was 29.6 µM in [1]; 36.4 µM in assay [2]; greater than 100 µM in [3]; 31.5 µM in assay [4]; 30.4 µM in assay [5]; 33.5 µM in assay [6]. For the same compound, the TGI in [7] was determined as 30.8 µM; in assay [8] it was 28.6 µM; in assay [9] it was 47.6 µM; in assay [10], 26.7 µM.
`C=C(CO)C(=O)OC1CC(=C)C2CC(O)C(C)C2C2OC(=O)C(=C)C12` (stereo not drawn): the TGI in assay [1] is greater than 100 µM; in assay [2] it was 32.3 µM; in assay [3] it was 77.7 µM; in assay [4] it was greater than 100 µM; in assay [5], 35 µM; in assay [6], 45.8 µM. The TGI is 69.9 µM in [7], greater than 100 µM in assay [8], 57.6 µM in assay [9] and 36.6 µM in assay [10].
In the case of `CCCCn1c(=O)[nH]c(N)c([C@@H]2c3c([nH]c(=O)n(CCCC)c3=O)Oc3ccc4ccccc4c32)c1=O`, the GI50 in [1] is 2.04 µM; in assay [2], 1.83 µM; in assay [3], 0.326 µM; in assay [4], 4.64 µM; in [5] it was 1.67 µM; in [6], 2.57 µM. For the same compound, the GI50 is 1.82 µM in assay [7], 1.65 µM in assay [8], 2.52 µM in assay [9] and 1.35 µM in assay [10]. Also, the TGI in assay [1] is 4.41 µM; in assay [2], 3.57 µM; in [3], 1.38 µM; in assay [4], 18.8 µM; in assay [5] it was 3.41 µM; in assay [6], 6.36 µM. Moreover, the TGI in [7] is 3.51 µM; in [8], 3.23 µM; in assay [9], 6.23 µM; in assay [10] it was 2.69 µM.
In the case of `COc1cc(/C=C2\CC3C4CC=C5CC(OC(C)=O)CC[C@]5(C)C4CC[C@]3(C)C2=O)ccc1OCCN1CCCC1` (stereo partly drawn), the GI50 in assay [1] was 4.51 µM; in assay [2], 14.7 µM; in [3], 0.268 µM; in [4], 18 µM; in [5], 1.91 µM; in assay [6], 10.5 µM. Also, the GI50 in [7] was 13.8 µM; in assay [8] it was 8.47 µM; in assay [9], 2.54 µM; in assay [10], 8.67 µM. For the same compound, the TGI in assay [1] was determined as 14 µM; in assay [2] it was 38.3 µM; in assay [3] it was 1.78 µM; in [4] it was 35.4 µM; in assay [5], 5.3 µM; in assay [6] it was 26.6 µM. The TGI in [7] was 47 µM; in assay [8], 23.2 µM; in [10] it was 23.5 µM.
As for `NS(=O)(=O)c1ccc(N(/C=C/C(=O)C(F)(F)F)CC(=O)c2ccc(F)cc2)cc1`, the GI50 in assay [1] is 44.7 µM; in assay [2] it was 19.3 µM; in assay [3] it was 15.6 µM; in [4], 29.7 µM; in [5] it was 23.6 µM; in assay [6], 26.1 µM. Also, the GI50 in [7] was 42.3 µM; in [8], 22.7 µM; in assay [9] it was 43.7 µM; in assay [10], 31.9 µM. The TGI in [1] is greater than 100 µM; in [2] it was 43.3 µM; in assay [3] it was 41.5 µM; in assay [4] it was 87.2 µM; in assay [5], 85.5 µM; in assay [6], 51.5 µM. The TGI in assay [7] was greater than 100 µM; in assay [8], 81.2 µM; in assay [9], greater than 100 µM; in assay [10], greater than 100 µM.
For the compound `Cc1cc(I)cc(CNCCN(C)C)c1O`, the GI50 in [1] is greater than 92.2 µM; in [2], 37.5 µM; in assay [3], greater than 100 µM; in assay [4] it was greater than 100 µM; in assay [5], 43.8 µM; in assay [6], greater than 86.3 µM. Also, the GI50 in assay [7] is greater than 100 µM; in assay [8], greater than 84 µM; in [9], 28.5 µM; in assay [10], 60.5 µM. In addition, the TGI in assay [1], in assay [2], in assay [3], in assay [4], in assay [5] and in assay [6] was greater than 100 µM in each case. The TGI was greater than 100 µM in assay [7], greater than 100 µM in assay [8], greater than 80.4 µM in [9] and greater than 100 µM in assay [10].
Consider `COc1cc2cc(NCc3cccc(Cl)c3)nc(C)c2cc1OC`, for which the GI50 in assay [1] was 1.7 µM; in assay [2] it was 1.47 µM; in assay [3], 2.54 µM; in assay [4] it was 3.52 µM; in assay [5], 2.83 µM; in assay [6] it was 1.01 µM. For the same compound, the GI50 in [7] was 3.04 µM; in assay [8] it was 3.14 µM; in assay [9] it was 0.865 µM; in assay [10] it was 0.678 µM. The TGI was 20.4 µM in assay [1]; 8.96 µM in [2]; greater than 100 µM in assay [3]; 36.5 µM in assay [4]; 19.9 µM in assay [5]; 10.4 µM in assay [6]. The TGI worked out at 23.6 µM in assay [7], 23.7 µM in [8], 5.42 µM in assay [9] and 14.4 µM in assay [10].
For `N#CC1=C(N)Oc2c(sc3c(Br)cccc23)C1c1ccc([N+](=O)[O-])cc1` (stereo not drawn), the GI50 in assay [1] was 0.158 µM; in [2], 0.319 µM; in assay [3] it was 0.121 µM; in assay [4] it was 0.462 µM; in assay [5], 0.0948 µM; in assay [6] it was 0.0216 µM. In addition, the GI50 was 0.227 µM in [7], 0.11 µM in assay [8], 2.66 µM in [9] and 0.126 µM in assay [10]. Moreover, the TGI was 11.9 µM in assay [1]; 5.31 µM in assay [2]; 9.89 µM in assay [3]; 19.4 µM in [4]; 10.5 µM in [5]; 0.616 µM in assay [6]. The TGI stood at 12.2 µM in assay [7], 13.6 µM in [8], 21 µM in assay [9] and 14.5 µM in assay [10].
For the compound `COc1cc(/C=C/C(=O)c2cccc(-n3cc(-c4ccccc4)[nH]c3=O)c2)cc(OC)c1OC`, the GI50 in [1] was 1.38 µM; in [2], 1.93 µM; in assay [3], 0.64 µM; in assay [4] it was 2.3 µM; in [5] it was 1.13 µM; in assay [6] it was 0.958 µM. In addition, the GI50 was 1.62 µM in assay [7], 3.26 µM in assay [8], 1.74 µM in assay [9] and 1.51 µM in [10]. Further, the TGI in assay [1] is 2.97 µM; in assay [2] it was 5.47 µM; in assay [3], greater than 100 µM; in assay [4], 11.4 µM; in [5], 5.7 µM; in assay [6], 2.52 µM. Moreover, the TGI was 16.4 µM in assay [7], 20.7 µM in assay [8], 3.2 µM in assay [9] and 4.56 µM in [10].
Regarding `CCC(=C(c1ccc(OCCN2CCCCC2)cc1)c1ccc(OCCN2CCCCC2)cc1)c1ccc(Cl)cc1`, the GI50 in assay [1] is 2.51 µM; in [2] it was greater than 16.7 µM; in assay [3], 1.92 µM; in [4], greater than 16.7 µM; in assay [5] it was 1.05 µM; in [6], 7.72 µM. Besides, the GI50 in assay [7] is greater than 16.7 µM; in assay [8], greater than 16.7 µM; in assay [9] it was 2.8 µM; in assay [10] it was 2.32 µM. In addition, the TGI in [1] is 5.09 µM; in [2], greater than 16.7 µM; in [3], greater than 16.7 µM; in [4] it was greater than 16.7 µM; in [5], greater than 16.7 µM; in [6], greater than 16.7 µM. The TGI in assay [7] is greater than 16.7 µM; in assay [8], greater than 16.7 µM; in [9] it was 5.26 µM; in assay [10], 7.87 µM.
